Assay results as given in paper PMC10630842, “Impact of dietary plant flavonoids on 7,8‐dihydroxyflavone transepithelial transport in human intestinal Caco‐2 cells” (Food Science & Nutrition, 2023).
Where “and” joins values, the source holds several entries; their conditions need not be identical. Identical values can stand only once.

Assays:
Caco‐2 monolayers = experiment: Bi-directional transepithelial transport of 7,8-DHF across Caco-2 monolayers with flavonoids screened as P-gp inhibitors (Papp, ER); format: in vitro ADME, human; conditions: for Modulatory effect on 7,8‐DHF transport: flavonoid equimolar with 7,8‐DHF 10 μmol/L; for Modulatory effect on 7,8‐DHF transport: key: + indicates that the inhibitor has a significant effect on 7,8‐DHF transport; − indicates that the inhibitor has no significant effect on 7,8‐DHF transport
Procedure: (§1) For this experiment, the 7,8‐DHF sample was first dissolved in a small amount of dimethyl sulfoxide (DMSO) and then diluted with HBSS to a working concentration of 10 μmol/L. The final DMSO concentration in the working solution was controlled to be less than 0.5%. […] Flavonoid samples were added to the AP and BL sides at equimolar concentrations with 7,8‐DHF (the sample concentration in HBSS solution was 10 μmol/L). Prior to transport, dietary flavonoids were pretreated on the AP side for 30 min. Then, these flavonoid reagents were removed, and a 0.5 mL HBSS solution containing various dietary flavonoids with 7,8‐DHF (concentration of 10 μmol/L) was added to the AP side, while 1.5 mL of blank HBSS was added to the BL side. Conversely, 1.5 mL of HBSS solution containing various dietary flavonoids with 7,8‐DHF (10 μmol/L) was added to the BL side, and 0.5 mL of blank HBSS was added to the AP side.
(§2) The magnitude of the apparent permeability coefficients (P app, cm/s) and efflux ratio (ER) reflects the ability of the test substance to pass through the monolayer cells and the speed of absorption.
(§3) (4) ER=PappAB/PappBA where P app AB is the apparent permeability coefficient for AP → BL transport, and P app BA is the apparent permeability coefficient for BL → AP transport.
(§4) Effect of different concentrations of specific flavonoids on 7,8‐DHF transepithelial transport was investigated. The operating procedure was followed by above section, with the exception that specific dietary flavonoid samples were added to the AP and BL sides at varying molar ratios with 7,8‐DHF (2:1, 1:1, 1:2, and 1:4). The specific dietary flavonoids were dissolved in HBSS while controlling the DMSO concentration to be less than 0.5%.

[1] = In vitro digestion stability of 7,8-DHF (simulated saliva, gastric fluid, intestinal fluid); format: in vitro ADME; conditions: 7,8‐DHF combined with the named flavonoid
Procedure: The in vitro digestion model proposed by Versantvoort et al.'s report was modified as follows (Versantvoort et al., [2005]): […] The pH of the system was then adjusted to 7.5 and simulated intestinal fluid containing pancreatin and bile salts was added for 2 h of stirring. During the process, a certain amount of the digested liquid sample from the simulated saliva, gastric fluid, and intestinal fluid were taken, and ethanol was added to precipitate and inactivate the enzymes. […] A 1 mL aliquot was placed in a high-speed centrifuge tube (3K15, Sigma) and centrifuged at 4°C, 11000 × g for 15 min.

Caco‐2 cells [2] = experiment: Uptake amount of 7,8-DHF in Caco-2 cells at the end of transport; format: in vitro ADME, human
Procedure: The cell surface was rapidly washed three times with ice-cold HBSS solution. The cells were harvested using a cell scraper and resuspended in 1.0 mL of 0.1% extraction solution (phosphate: methanol = 1:1, v/v) before being homogenized in an ultrasonicator.

[3] = design: method as in Liu et al., 2013; conditions: C57BL/6 mice, ref Liu et al., 2013; cited from earlier work
[4] = Stability of 7,8-DHF in HBSS; format: physicochemical; conditions: HBSS pH 7.4, 37°C, 10 μmol/L
Procedure: (§5) Simultaneously, 0.5 mL of the aforementioned solution was added to the AP side of the Transwell culture plate containing Caco‐2 cells, while 1.5 mL of blank HBSS added to the BL side. […] The Caco‐2 cell stability test was performed under both inhibitory and non‐inhibitory conditions, and the 7,8‐DHF content in the samples was determined.
(§6) A volume of 200 μL of receiving solution was transferred into a 1 mL centrifuge tube, followed by adding 10 μL of internal standard solution (10 μg/mL apigenin) and 200 μL of methanol. […] Thereafter, 5 μL of the supernatant was injected into the UPLC system. The UPLC system used in this study was a Waters ACQUITY UPLC H‐CLASS series instrument (Waters) equipped with a quaternary solvent manager, a sample manager‐flow through needle, a chromatographic column heater and a PDA eλ detector. […] The mobile phase comprised of methanol (solvent A) and 0.05% trifluoroacetic acid of ultrapure water (solvent B). The gradient elution program was as follows: 20% solvent A (0~1 min), 20%~80% solvent A (1~5 min), 80%~100% solvent A (5~7 min), 100 ~ 20% solvent A (7~8 min), and 20% solvent A (8~9 min). The flow rate maintained at 0.2 mL/min, the temperature was set to 37°C, and the PDA detector wavelength was set at 330 nm.

[5] = design: method as in Xiao and Högger (2015); conditions: DMEM solutions during Caco‐2 cell incubation; ref Xiao and Högger (2015); cited from earlier work
in vitro = in vitro ADME, human; conditions: human, Caco-2
Procedure: as §1, §2, §3, §4

Caco‐2 cells [6] = experiment: Cytotoxicity, CCK-8 assay; format: cell-based, human; conditions: 24 h
Procedure: To determine the cytotoxicity of 7,8‐DHF for transport experiments, a CCK‐8 assay was carried out (Han et al., [2023]). A total of 200 μL culture medium containing Caco‐2 cells at a density of 3 × 10^4 cells/mL was seeded in a 96‐well plate and incubated for 24 h to allow for adherence. After the incubation period, the culture medium was removed and replaced with 200 μL fresh medium containing 7,8‐DHF at concentrations of 1, 10, 50, 100, and 300 μmol/L. Additionally, 200 μL medium without 7,8‐DHF was added as the control group, while medium without cells was used as the blank group. Following 24 h of drug stimulation, 10 μL CCK‐8 reagent was added to each well followed by another 2 h incubation. The absorbance was measured at 450 nm wavelength using an enzyme‐linked immunosorbent assay reader (Eonmei, BioTek). Each sample was repeated five times, and the cell survival rate was calculated using the following formula: (2) Cell survival rate%=ODsample group−ODblank group/ODcontrol group−ODblank group×100 where OD represents the absorbance of each sample at 450 nm wavelength.

Caco‐2 cells [7] = experiment: Stability (recovery) of 7,8-DHF in Caco-2 cells with or without inhibitors; conditions: 60 and 240 min incubation
Procedure: as §5, §6

[8] = as above; conditions: human, Caco-2, pH 7.4
Procedure: as §5, §6

[9] = human, Caco-2, 150 min, 10 μmol/L

Compound: O=C1C[C@@H](c2ccc(O)cc2)Oc2cc(O)cc(O)c21 [Naringenin, naringenin]
- Modulatory effect on 7,8‐DHF transport (Caco‐2 monolayers; verapamil 100 μmol/L): −
- P app AB of 7,8‐DHF in presence of the named inhibitor (Caco‐2 monolayers; [9]): 1.16 ± 0.02 ×10^−6 cm/s
- P app BA of 7,8‐DHF in presence of the named inhibitor (Caco‐2 monolayers; [9]): 1.88 ± 0.11 ×10^−6 cm/s

Compound: O=c1c(O)c(-c2ccc(O)c(O)c2)oc2cc(O)ccc12 [Fisetin, fisetin]
- Modulatory effect on 7,8‐DHF transport (Caco‐2 monolayers; verapamil 100 μmol/L): +

Compound: COc1ccc(-c2coc3cc(O)cc(O)c3c2=O)cc1 [Biochanin A, biochanin A]
- Modulatory effect on 7,8‐DHF transport (Caco‐2 monolayers; verapamil 100 μmol/L): −

Compound: O=c1c(O)c(-c2ccc(O)cc2)oc2cc(O)cc(O)c12 [Kaempferol, kaempferol]
- Modulatory effect on 7,8‐DHF transport (Caco‐2 monolayers; verapamil 100 μmol/L): +
- Effect of combined flavonoid on retention of 7,8‐DHF in simulated in vitro digestion [1]: no significant effects were observed

Compound: O=c1cc(-c2ccc(O)cc2)oc2cc(O)c([C@@H]3O[C@H](CO)[C@@H](O)[C@H](O)[C@H]3O)c(O)c12 [Isovitexin, isovitexin]
- Modulatory effect on 7,8‐DHF transport (Caco‐2 monolayers; verapamil 100 μmol/L): +
- ER of 7,8‐DHF in presence of the named inhibitor (Caco‐2 monolayers; [9]): 1.55
- P app AB of 7,8‐DHF in presence of the named inhibitor (Caco‐2 monolayers; [9]): 1.27 ± 0.08 ×10^−6 cm/s
- P app BA of 7,8‐DHF in presence of the named inhibitor (Caco‐2 monolayers; [9]): 1.97 ± 0.11 ×10^−6 cm/s

Compound: O=c1c(O)c(-c2ccc(O)c(O)c2)oc2cc(O)cc(O)c12 [Quercetin, quercetin]
- Modulatory effect on 7,8‐DHF transport (Caco‐2 monolayers; verapamil 100 μmol/L): +
- Effect of combined flavonoid on retention of 7,8‐DHF in simulated in vitro digestion [1]: no significant effects were observed
- Uptake amount of 7,8‐DHF in Caco‐2 cells with the named flavonoid (Caco‐2 cells [2]; molar concentration ratio flavonoid to 7,8‐DHF 1:2): did not increase the uptake
- Uptake amount of 7,8‐DHF in Caco‐2 cells with the named flavonoid (Caco‐2 cells [2]; molar concentration ratio flavonoid to 7,8‐DHF 4:1): did not increase the uptake

Compound: O=C(O[C@@H]1Cc2c(O)cc(O)cc2O[C@@H]1c1cc(O)c(O)c(O)c1)c1cc(O)c(O)c(O)c1 [EGCG, epigallocatechin gallate]
- ER of 7,8‐DHF in presence of the named inhibitor (Caco‐2 monolayers; 7,8‐DHF 10 μmol/L, flavonoid equimolar (1:1, 10 μmol/L), verapamil 100 μmol/L): 1.34
- P app AB of 7,8‐DHF in presence of the named inhibitor (Caco‐2 monolayers; 7,8‐DHF 10 μmol/L, flavonoid equimolar (1:1, 10 μmol/L), verapamil 100 μmol/L, AP → BL, 150 min): 1.21 ± 0.03 ×10^−6 cm/s
- P app BA of 7,8‐DHF in presence of the named inhibitor (Caco‐2 monolayers; 7,8‐DHF 10 μmol/L, flavonoid equimolar (1:1, 10 μmol/L), verapamil 100 μmol/L, BL → AP, 150 min): 1.63 ± 0.05 ×10^−6 cm/s and 1.62 ± 0.05 ×10^−6 cm/s
- ER of 7,8‐DHF in presence of the named inhibitor (Caco‐2 monolayers; 7,8‐DHF 10 μmol/L, flavonoid equimolar (1:1, 10 μmol/L), verapamil 100 μmol/L, listed as epigallocatechin gallate): less than 1.5
- Modulatory effect on 7,8‐DHF transport (Caco‐2 monolayers; verapamil 100 μmol/L): +

Compound: O=c1cc(-c2ccc(O)c(O)c2)oc2c([C@@H]3O[C@H](CO)[C@@H](O)[C@H](O)[C@H]3O)c(O)cc(O)c12 [Orientin]
- Modulatory effect on 7,8‐DHF transport (Caco‐2 monolayers; verapamil 100 μmol/L): −

Compound: O=c1c(-c2ccc(O)cc2)coc2cc(O)cc(O)c12 [Genistein, genistein]
- Modulatory effect on 7,8‐DHF transport (Caco‐2 monolayers; verapamil 100 μmol/L): +

Compound: O=c1c(O)c(-c2cc(O)c(O)c(O)c2)oc2cc(O)cc(O)c12 [Myricetin, myricetin]
- Modulatory effect on 7,8‐DHF transport (Caco‐2 monolayers; verapamil 100 μmol/L): +

Compound: O=c1cc(-c2ccccc2)oc2c(O)c(O)ccc12 [7,8‐DHF, 7,8‐Dihydroxyflavone]
- Oral bioavailability [3]: 4.6%
- Recovery of 7,8-DHF ([4]; 60 min): 98.71±1.07%
- Recovery of 7,8-DHF ([4]; 240 min): 97.26±2.17%
- Half‐degradation time [5]: above 180 min
- Papp A→B at 150 min, 10 μmol/L (in vitro): 1.19 ± 0.08 ×10⁻⁶ cm/s
- Papp B→A at 150 min, 10 μmol/L (in vitro): 1.91 ± 0.13 ×10⁻⁶ cm/s
- efflux ratio at 150 min, 10 μmol/L (in vitro): 1.61
- Cell toxicity toward Caco‐2 cells (CCK‐8) (Caco‐2 cells [6]; 300 μmol/L): certain cell toxicity
- Cell toxicity toward Caco‐2 cells (CCK‐8) (Caco‐2 cells [6]; concentration range 1~100 μmol/L): no significant cell toxicity
- Metabolism of 7,8‐DHF in Caco‐2 cells (recovery vs blank HBSS) (Caco‐2 cells [7]): not metabolized
- recovery at 60 min, 10 μmol/L [8]: 99.11 ± 0.57%
- recovery at 240 min, 10 μmol/L [8]: 97.74 ± 0.42%
- Uptake amount of 7,8‐DHF in Caco‐2 cells (Caco‐2 cells [2]; control, 7,8‐DHF without inhibitor, end of 150 min transport): 0.378 ± 0.018 nmol/mg protein

Compound: O=c1cc(-c2ccccc2)oc2cc(O)c(O)c(O)c12 [Baicalein, baicalein]
- Modulatory effect on 7,8‐DHF transport (Caco‐2 monolayers; verapamil 100 μmol/L): +
- ER of 7,8‐DHF in presence of the named inhibitor (Caco‐2 monolayers; [9]): 1.59

Compound: O=c1cc(-c2ccc(O)c(O)c2)oc2cc(O)c([C@@H]3O[C@H](CO)[C@@H](O)[C@H](O)[C@H]3O)c(O)c12 [Isoorientin, isoorientin]
- Modulatory effect on 7,8‐DHF transport (Caco‐2 monolayers; verapamil 100 μmol/L): +

Compound: O=c1cc(-c2ccc(O)cc2)oc2c([C@@H]3O[C@H](CO)[C@@H](O)[C@H](O)[C@H]3O)c(O)cc(O)c12 [Vitexin, vitexin]
- Modulatory effect on 7,8‐DHF transport (Caco‐2 monolayers; verapamil 100 μmol/L): −
- P app AB of 7,8‐DHF in presence of the named inhibitor (Caco‐2 monolayers; [9]): 1.14 ± 0.16 ×10^−6 cm/s
- P app BA of 7,8‐DHF in presence of the named inhibitor (Caco‐2 monolayers; [9]): 1.94 ± 0.03 ×10^−6 cm/s
- Uptake amount of 7,8‐DHF in Caco‐2 cells after treatment with the named inhibitor (Caco‐2 cells [2]; flavonoid: 7,8‐DHF 1:1 (equimolar), verapamil 100 μmol/L, end of 150 min transport): significant decrease
